Assay results reported in ChEMBL document CHEMBL1124085, “Flavins as potential antimalarials. 1. 10-(Halophenyl)-3-methylflavins” (1988).

Columns and labels:
[1] = test system: Mus musculus; assay: Parenteral antimalarial activity against Plasmodium vinckei vinckei in mice (Mus musculus) measured as % cured and increase in MST (days) at 25 mg/kg dose.; format: functional
[2] = test system: Mus musculus; assay: Oral antimalarial activity against Plasmodium vinckei in mice (Mus musculus) measured as % cured and increase in MST (days) at 50 mg/kg dose.; format: functional
[3] = test system: Mus musculus; assay: Parenteral antimalarial activity against Plasmodium vinckei in mice (Mus musculus) measured as % cured and increase in MST (days) at 30 mg/kg dose.
[4] = test system: Mus musculus; assay: Oral antimalarial activity against Plasmodium vinckei vinckei in mice (Mus musculus) measured as % cured and increase in MST (days) at 100 mg/kg dose.; format: functional
[5] = test system: Mus musculus; assay: Oral antimalarial activity against Plasmodium vinckei in mice (Mus musculus) measured as increase in mean survival time at 25 mg/kg dose.; format: functional
[6] = test system: Mus musculus; assay: Oral antimalarial activity against Plasmodium vinckei in mice (Mus musculus) measured as % cured and increase in MST (days) at 75 mg/kg dose.; format: functional
[7] = test system: Mus musculus; assay: Parenteral antimalarial activity against Plasmodium vinckei in mice (Mus musculus) measured as % cured and increase in MST (days) at 15 mg/kg dose.; format: functional
[8] = test system: Mus musculus; assay: Parenteral antimalarial activity against Plasmodium vinckei vinckei in mice (Mus musculus) measured as % cured and increase in MST (days) at 10 mg/kg dose.; format: functional
[9] = test system: Mus musculus; assay: Oral antimalarial activity against Plasmodium vinckei vinckei in mice (Mus musculus) measured as % cured and increase in MST (days) at 150 mg/kg dose.; format: functional
[10] = test system: Mus musculus; assay: Oral antimalarial activity against Plasmodium vinckei in mice (Mus musculus) measured as % cured and increase in MST (days) at 25 mg/kg dose.; format: functional
[11] = test system: Mus musculus; assay: Parenteral antimalarial activity against Plasmodium vinckei vinckei in mice (Mus musculus) measured as % cured and increase in MST (days) at 20 mg/kg dose.; format: functional
[12] = test system: Mus musculus; assay: Parenteral antimalarial activity against Plasmodium vinckei in mice (Mus musculus) measured as increase in mean survival time at 10 mg/kg dose; format: functional
[13] = test system: Mus musculus; assay: Oral antimalarial activity against Plasmodium vinckei in mice (Mus musculus) measured as increase in mean survival time at 25 mg/kg dose; format: functional
[14] = test system: Mus musculus; assay: Oral antimalarial activity against Plasmodium vinckei in mice (Mus musculus) measured as increase in mean survival time at 150 mg/kg dose; format: functional
[15] = test system: Mus musculus; assay: Oral antimalarial activity against Plasmodium vinckei in mice (Mus musculus) measured as % cured and increase in MST (days) at 75 mg/kg dose; format: functional
[16] = test system: Mus musculus; assay: Parenteral antimalarial activity against Plasmodium vinckei in mice (Mus musculus) measured as increase in mean survival time at 20 mg/kg dose; Toxic; format: functional
[17] = test system: Mus musculus; assay: Oral antimalarial activity against Plasmodium vinckei vinckei in mice (Mus musculus) measured as increase in mean survival time at 75 mg/kg dose; format: functional
[18] = test system: Mus musculus; assay: Parenteral antimalarial activity against Plasmodium vinckei in mice (Mus musculus) measured as % cured and increase in MST (days) at 20 mg/kg dose; format: functional
[19] = test system: Mus musculus; assay: Oral antimalarial activity against Plasmodium vinckei vinckei in mice (Mus musculus) measured as increase in mean survival time at 50 mg/kg dose; format: functional
[20] = test system: Mus musculus; assay: Oral antimalarial activity against Plasmodium vinckei in mice (Mus musculus) measured as % cured and increase in MST (days) at 25 mg/kg dose; format: functional
[21] = test system: Mus musculus; assay: Parenteral antimalarial activity against Plasmodium vinckei in mice (Mus musculus) measured as % cured and increase in MST (days) at 10 mg/kg dose; format: functional
[22] = test system: Mus musculus; assay: Oral antimalarial activity against Plasmodium vinckei vinckei in mice (Mus musculus) measured as % cured and increase in MST (days) at 150 mg/kg dose; format: functional
[23] = test system: Mus musculus; assay: Parenteral antimalarial activity against Plasmodium vinckei in mice (Mus musculus) measured as % cured and increase in MST (days) at 25 mg/kg dose; format: functional
[24] = test system: Mus musculus; assay: Parenteral antimalarial activity against Plasmodium vinckei vinckei in mice (Mus musculus) measured as % cured and increase in MST (days) at 15 mg/kg dose; format: functional
[25] = test system: Mus musculus; assay: Oral antimalarial activity against Plasmodium vinckei in mice (Mus musculus) measured as increase in mean survival time at 100 mg/kg dose; format: functional
[26] = test system: Mus musculus; assay: Parenteral antimalarial activity against Plasmodium vinckei in mice (Mus musculus) measured as increase in mean survival time at 15 mg/kg dose; format: functional
[27] = test system: Mus musculus; assay: Parenteral antimalarial activity against Plasmodium vinckei in mice (Mus musculus) measured as increase in mean survival time at 25 mg/kg dose; Toxic; format: functional
[28] = test system: Mus musculus; assay: Oral antimalarial activity against Plasmodium vinckei vinckei in mice (Mus musculus) measured as % cured and increase in MST (days) at 50 mg/kg dose; format: functional
[29] = test system: Mus musculus; assay: Oral antimalarial activity against Plasmodium vinckei vinckei in mice (Mus musculus) measured as % cured and increase in MST (days) at 100 mg/kg dose; format: functional

Cn1c(=O)nc2n(-c3cc(Cl)cc(Cl)c3)c3ccccc3nc-2c1=O
Cured [1]: 100% | Cured [2]: 100% | Cured [3]: 100% | Cured [4]: 100% | MST [5]: 3.5 days | Cured [6]: 100% | Cured [7]: 100% | Cured [8]: 100% | Cured [9]: 100% | Cured [10]: 60% | Cured [11]: 100%

Cn1c(=O)nc2n(-c3ccccc3Cl)c3ccccc3nc-2c1=O
MST [12]: 0 days | MST [13]: 0 days | MST [14]: 0 days | Cured [15]: 0% | MST [16]: -0.2 days | MST [17]: 0 days | Cured [18]: 0% | MST [19]: 0 days | Cured [20]: 0% | Cured [21]: 0% | Cured [22]: 0% | Cured [23]: 0% | Cured [24]: 0% | MST [25]: 0 days | MST [26]: 0 days | MST [27]: -1.4 days | Cured [28]: 0% | Cured [29]: 0%
